Data reported in patent US8604029B2, “2-[(2-substituted)-indolizin-3-yl]-2-oxo-acetamide derivatives as antifungal agents” (F2G Ltd British Body Corporate, priority 2006, dated 2013).
Values after ≈ are worked out from the molar mass of the structure shown.

Columns and labels:
Assay type in all cases: cell-based
[1] = system: Aspergillus fumigatus AF210; assay: MIC measurement, YAG medium; conditions: Aspergillus fumigatus, MIC banded into grades, strain AF210, read-out: MIC A. fumigatus 210
Method in brief: (§1)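 Spores from 5-day Sabouraud agar cultures were diluted in YAG medium (1% glucose, 1% ammonium chloride, 0.5% yeast extract) to a final inoculum of 1-2×10^4 cfu/mL, with drug at 50-0.05 mg/L. Plates were incubated 24 h at 35° C and read as OD 485 nm. MIC is the lowest concentration giving >70% inhibition versus drug-free control, in mg/L.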

Aspergillus flavus = assay: MIC measurement, YAG medium; conditions: Aspergillus flavus, MIC banded into grades, lowest concentration inhibiting growth by >70%
Method in brief: as §1

Aspergillus terreus = assay: MIC measurement, YAG medium; conditions: Aspergillus terreus, MIC banded into grades, strain not named in head (AT4)
Method in brief: as §1

Aspergillus niger = assay: MIC measurement, YAG medium; conditions: Aspergillus niger, MIC banded into grades
Method in brief: as §1

Aspergillus fumigatus = assay: MIC measurement, YAG medium; conditions: Aspergillus fumigatus; YAG medium; MIC banded into grades; strain AF293; read-out: MIC A. fumigatus
Method in brief: as §1

Aspergillus terreus AT49 = assay: MIC measurement, YAG medium; conditions: Aspergillus terreus, MIC banded into grades, strain AT49, read-out: MIC A. terreus 49
Method in brief: as §1

Fusarium solani = assay: 24 hr MIC measurement, RPMI medium; conditions: Fusarium solani FS2, MIC banded into grades
Method: Between 1 and 5 mgs of compound were accurately weighed out into a sterile Eppendorf tube. The compound was dissolved in DMSO to give a solution containing […]. Tubes were stored at −20° C. until required.
On the day of testing thawed solutions were vortex mixed to ensure homogeneity. 30 μL of solution was removed and added to 570 μL of sterile water in a separate sterile Eppendorf. The thoroughly mixed solution was used to prepare a series of doubling dilutions in water, in a deep well plate. Thirteen replicate plates were prepared using a Minitrak by aspirating 20 μL from each well into eleven clear polystyrene 96 well plates.
Spores of Aspergillus spp. […]
This produced MIC plates with a drug range 50-0.05 mg/L and organism inocula of 1-2×10^4 cfu/mL for Aspergillus spp. and other filamentous fungi and 1-2×10^3 cfu/mL for yeasts. […] Growth was assessed by monitoring the optical density at 485 nm for each well. […] MICs are recorded as mg/L. Other growth media can be used for susceptibility testing, and the activity of the described compounds can also be assessed in a medium comprising 1% glucose, 1% ammonium chloride and 0.5% yeast extract (YAG medium). […] Growth was assessed by monitoring the optical density at 485 nm for each well. […]

| MIC [1] | MIC (Aspergillus flavus) | MIC (Aspergillus terreus) | MIC (Aspergillus niger) | MIC (Aspergillus fumigatus) | MIC (Aspergillus terreus AT49) | MIC (Fusarium solani) | SMILES |
| --- | --- | --- | --- | --- | --- | --- | --- |
| < 1 µg/mL | < 1 µg/mL | < 1 µg/mL | < 1 µg/mL | < 1 µg/mL | < 1 µg/mL | < 1 µg/mL | C=C1CCN(c2ccc(NC(=O)C(=O)c3c(-c4ccccc4)cc4ccccn34)cc2)CC1 [Example 3, N-[4-(4-methylene-piperidin-1-yl)-phenyl]-2-oxo-2-(2-phenyl-indolizin-3yl) acetamide] |
| < 1 µg/mL | < 1 µg/mL | < 1 µg/mL | < 1 µg/mL | < 1 µg/mL | < 1 µg/mL | 1 to 10 µg/mL (≈ 1.86 to 18.6 µM) | C[C@@H]1CN(C2CCN(c3ccc(NC(=O)C(=O)c4c(-c5ccccc5)cc5ccccn45)cc3)CC2)C[C@H](C)O1 [Example 24, N-{4-[4-(2,6-Dimethyl-morpholin-4-yl)-piperidin-1-yl]-phenyl}-2-oxo-2-(2-phenyl-indolizin-3-yl)-acetamide] |
